Source: US20060069132A1, “Azolecarboxamide herbicides” (priority 2004, published 2006)

Assays:
large crabgrass = experiment: Test A pre-/postemergence herbicide test; format: in vivo, Digitaria sanguinalis
In short: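 Greenhouse injury scoring (0–100, complete control = 100) at approximately ten days follows simultaneous pre- and postemergence application. Soil received a directed spray after seeding; seedlings of 2–10 cm at the one- to two-leaf stage were sprayed to runoff.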

rice [1] = experiment: Test B pre-/postemergence herbicide test; format: in vivo, Oryza sativa; details: for Plant response rating, Rice: preemergence, 125 g ai/ha, 0 to 100 scale, 0 is no effect, 100 is complete control
In short: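 Greenhouse pot assay with simultaneous preemergence (treated seed) and postemergence (2–18 cm seedlings) applications of surfactant-containing, non-phytotoxic solvent formulations. Response scored visually 13–15 days later on a 0–100 scale, 100 meaning complete control.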

blackgrass = experiment: Test B postemergence herbicide test; format: in vivo, Alopecurus myosuroides; details: scale 0 (no effect) to 100 (complete control); for Plant response rating, Blackgrass: Postemergence, 500 g ai/ha, visual rating after 13 to 15 days; for Blackgrass plant response rating: postemergence, 125 g ai/ha, visual rating
In short: (§1)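 Postemergence plants were sprayed with formulated test chemicals at 2 to 18 cm height (1- to 4-leaf stage); paddy species were grown to the 2-leaf stage. After 13 to 15 days in a greenhouse, injury was rated visually against untreated controls on a 0–100 scale (0 = no effect, 100 = complete control).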

ducksalad = experiment: Test B flooded paddy test; format: in vivo, Heteranthera limosa; details: 1000 g ai/ha, visual rating, scale 0 to 100 (0 no effect, 100 complete control), 13 to 15 days
In short: as §1

cocklebur = experiment: Test C pre-/postemergence herbicide test; format: in vivo, Xanthium strumarium; details: for Cocklebur plant response rating: 500 g ai/ha
In short: (§2)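 Pre/post spray; non-phytotoxic solvent + surfactant. Post-timing 1–4 leaves, 2–18 cm. Read-out: visual % control vs untreated, day 12–14, greenhouse.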

giant foxtail = experiment: Test C pre-/postemergence herbicide test; format: in vivo, Setaria faberi; details: for Foxtail, Giant plant response rating: 500 g ai/ha
In short: as §2

johnsongrass = experiment: Test C pre-/postemergence herbicide test; format: in vivo, Sorghum halepense; details: for Johnsongrass plant response rating: 500 g ai/ha
In short: as §2

common ragweed = experiment: Test C pre-/postemergence herbicide test; format: in vivo, Ambrosia elatior; parameters: key to Plant response rating, Ragweed: 0 = no effect, 100 = complete control; details: for Ragweed plant response rating: 500 g ai/ha
In short: as §2

[2] = tested on: common (oilseed) sunflower; experiment: Test C pre-/postemergence herbicide test; format: in vivo, Helianthus annuus; details: for Plant response rating (0 = no effect, 100 = complete control), Sunflower: 62 g ai/ha; for Plant response rating (0 = no effect, 100 = complete control), Sunflower / Plant response rating, Sunflower: preemergence; for Plant response rating, Sunflower: visual, 12 to 14 days; for Sunflower plant response rating: Preemergence, 500 g ai/ha, scale 0 to 100, 0 no effect, 100 complete control
In short: as §2

rice [3] = experiment: Test C flooded paddy test; format: in vivo, Oryza sativa; details: for Plant response rating, Rice: 500 g ai/ha, visual rating after 12 to 14 days
In short: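 Plants were grown to the 1- to 4-leaf stage (2–18 cm) and then treated postemergence, or grown to the 2-leaf stage for the flooded paddy test. They were held in a greenhouse for 12 to 14 days and then scored by eye against controls, where 0 is no effect and 100 is complete control.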

[4] = Postemergence, 500 g ai/ha, 0 to 100 scale, 0 no effect, 100 complete control
[5] = Postemergence, 2000 g ai/ha, 0 to 100 scale, 0 no effect, 100 complete control
[6] = Preemergence, 500 g ai/ha, visual rating, 0 to 100 scale (0 no effect, 100 complete control)
[7] = Preemergence, 2000 g ai/ha, 0 to 100 scale, 0 no effect, 100 complete control
[8] = 125 g ai/ha, scale 0 (no effect) to 100 (complete control), visual, 12 to 14 days, preemergence
[9] = 250 g ai/ha, scale 0 to 100 (0 no effect, 100 complete control), visual, 12 to 14 days, preemergence
[10] = Postemergence, 125 g ai/ha, scale 0 to 100, 0 no effect, 100 complete control
[11] = Postemergence, 250 g ai/ha, scale 0 to 100, 0 no effect, 100 complete control
[12] = Preemergence, scale 0 to 100, 0 no effect, 100 complete control
[13] = postemergence, 62 g ai/ha, scale 0 to 100
[14] = 125 g ai/ha, scale 0 (no effect) to 100 (complete control)
[15] = 62 g ai/ha, scale 0 to 100 (0 no effect, 100 complete control)
[16] = 125 g ai/ha, scale of 0 to 100, 0 is no effect, 100 is complete control
[17] = 250 g ai/ha, scale of 0 to 100, 0 is no effect, 100 is complete control
[18] = scale 0 to 100 (0 no effect, 100 complete control)

SMILES: CCNC(=O)c1cc(NC(=O)c2cc(C(C)(C)C)nn2CC)ccc1F [Compound 58]
- Plant response rating, Crabgrass, Large (large crabgrass; [4]): 40
- Plant response rating, Crabgrass, Large (large crabgrass; [5]): 75
- Crabgrass, Large plant response rating (large crabgrass; [6]): 70
- Crabgrass, Large plant response rating (large crabgrass; [7]): 95
- Rice plant response rating (rice [1]; Preemergence, 500 g ai/ha, scale 0 to 100): 80
- Plant response rating, Rice (rice [1]): 60
- Plant response rating, Blackgrass (blackgrass): 30
- Blackgrass plant response rating (blackgrass): 10
- Ducksalad plant response rating (ducksalad): 80
- Plant response rating (0 = no effect, 100 = complete control), Cocklebur (cocklebur; 62 g ai/ha, preemergence): 0
- Plant response rating, Cocklebur (cocklebur; [8]): 5
- Plant response rating, Cocklebur (cocklebur; [9]): 10
- Cocklebur plant response rating (cocklebur; Postemergence, scale 0 to 100): 50
- Plant response rating, Cocklebur (cocklebur; [10]): 20
- Plant response rating, Cocklebur (cocklebur; [11]): 20
- Cocklebur plant response rating (cocklebur; [12]): 30
- Plant response rating, Cocklebur (cocklebur; [13]): 15
- Plant response rating (0 = no effect, 100 = complete control), Foxtail, Giant (giant foxtail; 62 g ai/ha, preemergence): 70
- Plant response rating, Foxtail, Giant (giant foxtail; [8]): 100
- Plant response rating, Foxtail, Giant (giant foxtail; [9]): 100
- Foxtail, Giant plant response rating (giant foxtail; Postemergence, scale 0 to 100): 40
- Plant response rating, Foxtail, Giant (giant foxtail; [10]): 5
- Plant response rating, Foxtail, Giant (giant foxtail; [11]): 20
- Foxtail, Giant plant response rating (giant foxtail; [12]): 100
- Plant response rating, Foxtail, Giant (giant foxtail; [13]): 0
- Plant response rating (0 = no effect, 100 = complete control), Johnsongrass (johnsongrass; 62 g ai/ha, preemergence): 70
- Plant response rating, Johnsongrass (johnsongrass; [8]): 80
- Plant response rating, Johnsongrass (johnsongrass; [9]): 90
- Johnsongrass plant response rating (johnsongrass; Postemergence, scale 0 to 100): 10
- Plant response rating, Johnsongrass (johnsongrass; [10]): 0
- Plant response rating, Johnsongrass (johnsongrass; [11]): 5
- Johnsongrass plant response rating (johnsongrass; [12]): 100
- Plant response rating, Johnsongrass (johnsongrass; [13]): 0
- Plant response rating (0 = no effect, 100 = complete control), Ragweed (common ragweed; 62 g ai/ha, preemergence): 60
- Plant response rating, Ragweed (common ragweed; [8]): 85
- Plant response rating, Ragweed (common ragweed; [9]): 100
- Ragweed plant response rating (common ragweed; Postemergence, scale 0 to 100): 85
- Plant response rating, Ragweed (common ragweed; [11]): 5
- Ragweed plant response rating (common ragweed; [12]): 100
- Plant response rating, Ragweed (common ragweed; [13]): 0
- Plant response rating (0 = no effect, 100 = complete control), Sunflower [2]: 0
- Plant response rating, Sunflower [2, 14]: 0
- Plant response rating, Sunflower ([2]; 250 g ai/ha, scale 0 to 100 (0 no effect, 100 complete control)): 0
- Sunflower plant response rating [2]: 0
- Rice plant response rating (rice [3]; [15]): 0
- Rice plant response rating (rice [3]; [16]): 35
- Rice plant response rating (rice [3]; [17]): 35
- Plant response rating, Rice (rice [3]; [18]): 75

SMILES: CCn1nc(C(C)(C)C)cc1C(=O)Nc1cccc2c1CCN(C1CC1)C2=O [Compound 64]
- Plant response rating, Crabgrass, Large (large crabgrass; [4]): 30
- Plant response rating, Crabgrass, Large (large crabgrass; [5]): 60
- Crabgrass, Large plant response rating (large crabgrass; [6]): 70
- Crabgrass, Large plant response rating (large crabgrass; [7]): 100
- Plant response rating, Rice (rice [1]): 0
- Plant response rating, Blackgrass (blackgrass): 10
- Blackgrass plant response rating (blackgrass): 0
- Ducksalad plant response rating (ducksalad): 90
- Plant response rating (0 = no effect, 100 = complete control), Cocklebur (cocklebur; 62 g ai/ha, preemergence): 0
- Plant response rating, Cocklebur (cocklebur; [8]): 0
- Plant response rating, Cocklebur (cocklebur; [9]): 0
- Cocklebur plant response rating (cocklebur; [12]): 0
- Plant response rating (0 = no effect, 100 = complete control), Foxtail, Giant (giant foxtail; 62 g ai/ha, preemergence): 0
- Plant response rating, Foxtail, Giant (giant foxtail; [8]): 0
- Plant response rating, Foxtail, Giant (giant foxtail; [9]): 10
- Foxtail, Giant plant response rating (giant foxtail; [12]): 80
- Plant response rating (0 = no effect, 100 = complete control), Johnsongrass (johnsongrass; 62 g ai/ha, preemergence): 0
- Plant response rating, Johnsongrass (johnsongrass; [8]): 20
- Johnsongrass plant response rating (johnsongrass; [12]): 60
- Plant response rating (0 = no effect, 100 = complete control), Ragweed (common ragweed; 62 g ai/ha, preemergence): 0
- Plant response rating, Ragweed (common ragweed; [8]): 0
- Ragweed plant response rating (common ragweed; [12]): 20
- Plant response rating (0 = no effect, 100 = complete control), Sunflower [2]: 0
- Plant response rating, Sunflower [2, 14]: 0
- Sunflower plant response rating [2]: 0
- Rice plant response rating (rice [3]; [15]): 0
- Rice plant response rating (rice [3]; [16]): 0
- Rice plant response rating (rice [3]; [17]): 0
- Plant response rating, Rice (rice [3]; [18]): 15

SMILES: CCCN1CCc2c(NC(=O)c3cc(C(C)(C)C)nn3CC)cccc2C1=O [Compound 65]
- Plant response rating, Crabgrass, Large (large crabgrass; [4]): 30
- Plant response rating, Crabgrass, Large (large crabgrass; [5]): 60
- Crabgrass, Large plant response rating (large crabgrass; [6]): 95
- Crabgrass, Large plant response rating (large crabgrass; [7]): 100
- Plant response rating, Rice (rice [1]): 10
- Plant response rating, Blackgrass (blackgrass): 10
- Blackgrass plant response rating (blackgrass): 10
- Ducksalad plant response rating (ducksalad): 90
- Plant response rating (0 = no effect, 100 = complete control), Cocklebur (cocklebur; 62 g ai/ha, preemergence): 0
- Plant response rating, Cocklebur (cocklebur; [8]): 0
- Plant response rating, Cocklebur (cocklebur; [9]): 0
- Cocklebur plant response rating (cocklebur; [12]): 0
- Plant response rating (0 = no effect, 100 = complete control), Foxtail, Giant (giant foxtail; 62 g ai/ha, preemergence): 0
- Plant response rating, Foxtail, Giant (giant foxtail; [8]): 0
- Plant response rating, Foxtail, Giant (giant foxtail; [9]): 20
- Foxtail, Giant plant response rating (giant foxtail; [12]): 60
- Plant response rating (0 = no effect, 100 = complete control), Johnsongrass (johnsongrass; 62 g ai/ha, preemergence): 10
- Plant response rating, Johnsongrass (johnsongrass; [8]): 40
- Johnsongrass plant response rating (johnsongrass; [12]): 100
- Plant response rating (0 = no effect, 100 = complete control), Ragweed (common ragweed; 62 g ai/ha, preemergence): 0
- Plant response rating, Ragweed (common ragweed; [8]): 0
- Ragweed plant response rating (common ragweed; [12]): 60
- Plant response rating (0 = no effect, 100 = complete control), Sunflower [2]: 0
- Plant response rating, Sunflower [2, 14]: 0
- Sunflower plant response rating [2]: 0
- Rice plant response rating (rice [3]; [15]): 0
- Rice plant response rating (rice [3]; [16]): 0
- Rice plant response rating (rice [3]; [17]): 25
- Plant response rating, Rice (rice [3]; [18]): 30

SMILES: CCOC(=O)c1cccc(NC(=O)c2cc(C(C)(C)C)nn2CC)c1C [Compound 88]
- Crabgrass, Large plant response rating (large crabgrass; [4]): 85
- Plant response rating, Crabgrass, Large (large crabgrass; [5]): 95
- Crabgrass, Large plant response rating (large crabgrass; [6]): 45
- Crabgrass, Large plant response rating (large crabgrass; [7]): 100
- Plant response rating, Rice (rice [1]): 20
- Plant response rating, Blackgrass (blackgrass): 0
- Blackgrass plant response rating (blackgrass): 0
- Ducksalad plant response rating (ducksalad): 80
- Plant response rating (0 = no effect, 100 = complete control), Cocklebur (cocklebur; 62 g ai/ha, preemergence): 0
- Plant response rating, Cocklebur (cocklebur; [8]): 0
- Plant response rating, Cocklebur (cocklebur; [9]): 0
- Cocklebur plant response rating (cocklebur; [12]): 0
- Plant response rating (0 = no effect, 100 = complete control), Foxtail, Giant (giant foxtail; 62 g ai/ha, preemergence): 0
- Plant response rating, Foxtail, Giant (giant foxtail; [8]): 50
- Plant response rating, Foxtail, Giant (giant foxtail; [9]): 85
- Foxtail, Giant plant response rating (giant foxtail; [12]): 100
- Plant response rating (0 = no effect, 100 = complete control), Johnsongrass (johnsongrass; 62 g ai/ha, preemergence): 0
- Plant response rating, Johnsongrass (johnsongrass; [8]): 20
- Johnsongrass plant response rating (johnsongrass; [12]): 70
- Plant response rating (0 = no effect, 100 = complete control), Ragweed (common ragweed; 62 g ai/ha, preemergence): 0
- Plant response rating, Ragweed (common ragweed; [8]): 0
- Ragweed plant response rating (common ragweed; [12]): 20
- Plant response rating (0 = no effect, 100 = complete control), Sunflower [2]: 0
- Plant response rating, Sunflower [2, 14]: 0
- Sunflower plant response rating [2]: 0
- Rice plant response rating (rice [3]; [15]): 0
- Rice plant response rating (rice [3]; [16]): 0
- Rice plant response rating (rice [3]; [17]): 20
- Plant response rating, Rice (rice [3]; [18]): 45
